Laboratory results: patent US4273923A, “Process for preparing aminoglycoside derivatives” (Shionogi & Co., Ltd., priority 1979, dated 1981)
Converted amounts (≈) assume the structure as drawn.

Experiments:
[1] = test system: Proteus morganii Morg. 96; assay: MIC by agar dilution method; conditions: Morganella morganii, MORG.96, 20 h, read-out: Minimum Inhibitory Concentration (MIC)
Experimental: (§1) MIC was determined by the following agar dilution method:
(§2) One loopful of a strain of bacteria to be tested on agar slant was inoculated into a medium for growth of inoculum (Trypto Soy Broth; Eiken Chemical Co.) and incubated at 37° C. overnight.
(§3) (2) Preparation of medium for antibacterial activity test
(§4) A sample solution of aminoglycoside derivative was subjected to serial two-fold dilutions with sterile water. These diluted sample solutions were distributed to the Modified Mueller Hinton Agar medium (Nissui-Seiyaku Co.), mixed gently and allowed to solidify.
(§5) One loopful of the bacterial suspension prepared in (1) was placed on the surface of the medium prepared in (2) containing the aminoglycoside derivative in various concentrations at 10^6 CFU/ml inoculum size.

[2] = test system: Staphylococcus epidermidis TB-302; assay: MIC by agar dilution method; assay type: cell-based; conditions: TB302, innoculum size 10^4 CFU/ml, 37° C., 18 to 20 hours, read-out: Minimum Inhibitory Concentration (MIC)
From the text: (1) Preparation of bacterial suspensions
(3) Determination of MIC values

[3] = test system: Klebsiella pneumoniae Kl-168; assay: MIC by agar dilution method; conditions: KL168, 20 h, read-out: Minimum Inhibitory Concentration (MIC)
Experimental: as §1, §2, §3, §4, §5

[4] = test system: Escherichia coli W-677/JR 762; assay: MIC by agar dilution method; conditions: W677/JR762, 20 h, read-out: Minimum Inhibitory Concentration (MIC)
Experimental: as §1, §2, §3, §4, §5

[5] = compared with kanamycin A; cited from earlier work

Row | Structure (SMILES) | MIC [1] [µg/mL] | MIC [2] [µg/mL] | MIC [3] [µg/mL] | MIC [4] [µg/mL] | antimicrobial activity [5]
1 | NC[C@H]1O[C@H](O[C@H]2[C@H](O)[C@@H](O[C@H]3O[C@H](CO)[C@@H](O)[C@H](N)[C@H]3O)[C@H](N)C[C@@H]2N)[C@H](N)C[C@@H]1O [TOB, tobramycin] | 25 (≈ 53.5 µM) | 3.1 (≈ 6.63 µM) | 100 (≈ 214 µM) | 50 (≈ 107 µM) | 
2 | NCC1=CC[C@@H](N)[C@@H](O[C@H]2[C@H](O)[C@@H](O[C@H]3O[C@H](CO)[C@@H](O)[C@H](N)[C@H]3O)[C@H](N)C[C@@H]2N)O1 [[A], O-[3-amino-3-deoxy-α-D-glucopyranosyl-(1→6)]-O-[2,6-diamino-2,3,4,6-tetradeoxy-α-D-glycero-hex-4-enopyranosyl-(1→4)]-2-deoxy-D-streptamine] | 12.5 (≈ 27.8 µM) | 0.2 (≈ 0.445 µM) | 50 (≈ 111 µM) | 12.5 (≈ 27.8 µM) | 
3 | NCC[C@H](O)C(=O)N[C@@H]1C[C@H](N)[C@@H](O[C@H]2O[C@H](CN)[C@@H](O)[C@H](O)[C@H]2O)[C@H](O)[C@H]1O[C@H]1O[C@H](CO)[C@@H](O)[C@H](N)[C@H]1O [amikacin] |  |  |  |  | more potent than kanamycin A
